Experiment [1] addresses T1, full-length MALT1 protein (Strep-MALT1(1-824)-His) (Homo sapiens, UniProt Q9UDY8).
T1 sequence (Q9UDY8 1-824): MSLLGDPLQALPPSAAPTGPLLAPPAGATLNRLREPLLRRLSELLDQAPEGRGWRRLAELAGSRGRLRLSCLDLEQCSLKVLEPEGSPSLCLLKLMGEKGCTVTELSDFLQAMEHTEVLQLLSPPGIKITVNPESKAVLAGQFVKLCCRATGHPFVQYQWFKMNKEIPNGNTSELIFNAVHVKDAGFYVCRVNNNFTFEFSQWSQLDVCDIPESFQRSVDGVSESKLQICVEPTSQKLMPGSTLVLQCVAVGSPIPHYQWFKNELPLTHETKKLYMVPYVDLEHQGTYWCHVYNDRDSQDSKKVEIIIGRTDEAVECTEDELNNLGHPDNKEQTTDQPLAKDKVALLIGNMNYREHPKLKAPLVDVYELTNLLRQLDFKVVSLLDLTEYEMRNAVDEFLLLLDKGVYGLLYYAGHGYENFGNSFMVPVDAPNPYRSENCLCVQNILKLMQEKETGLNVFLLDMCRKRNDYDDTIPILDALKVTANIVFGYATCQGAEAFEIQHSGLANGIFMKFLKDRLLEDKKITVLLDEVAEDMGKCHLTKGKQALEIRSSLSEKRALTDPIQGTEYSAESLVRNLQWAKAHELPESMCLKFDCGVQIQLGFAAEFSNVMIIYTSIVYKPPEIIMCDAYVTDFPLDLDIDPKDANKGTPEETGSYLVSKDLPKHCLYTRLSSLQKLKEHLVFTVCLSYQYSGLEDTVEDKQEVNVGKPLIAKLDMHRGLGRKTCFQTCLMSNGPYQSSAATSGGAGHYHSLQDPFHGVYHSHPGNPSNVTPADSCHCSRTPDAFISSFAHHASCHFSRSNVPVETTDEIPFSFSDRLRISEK
The experiment can be described thus: biochemical.
Protocol: MALT1 protease activity was assessed in an in vitro assay using a tetrapeptide as substrate and full-length MALT1 protein (Strep-MALT1(1-824)-His) purified from baculovirus-infected insect cells. The tetrapeptide LRSR is coupled to AMC (7-amino-4-methylcoumarin) and provides a quenched, fluorescent substrate for the MALT1 protease (SM Biochemicals). Cleavage of AMC from the Arginine residue results in an increase in coumarin fluorescence measured at 460 nm (excitation 355 nm). […] Test compounds were spotted at 50 nL in 100% DMSO per well of a black 384-Proxiplate (Perkin Elmer). Test compound concentrations ranged from 30 μM to 0.5 nM using 11 dilution steps (1:3). Background signal was measured from control wells containing assay buffer without enzyme which functions as low control (LC). High control (HC) values were generated using the reaction with enzyme but no compound treatment. Compounds were pre-incubated with MALT1 enzyme for 50 minutes at RT. Substrate was added subsequently and fluorescence was measured in Labsystems fluoroskan at excitation 355 nm and emission 460 nm to determine time 0. The reaction was subsequently incubated for 4 h at RT and fluorescence was measured. […] The enzyme reaction was linear during the 4 h incubation period.
IC50 values were calculated using the following formula (Z prime should be >0.5):
From this an IC50 value (inhibitory concentration causing 50% inhibition) can be obtained. An estimate of the slope of the plot in terms of the Hill coefficient was also obtained.
With y=estimated response • UB=upper bound • LB=lower bound • h=hill

For experiment [2], the system named is Secretion of IL6 by OCI-LY3 ABC-DLBCL cells. In words: Human IL6 Mesoscale assay (OCI-LY3). The format is cell-based. The settings on record: read-out: Human IL6 Mesoscale assay (OCI-LY3). As to the method:
(§1) NFKB signaling regulates the secretion of multiple cytokines, including IL6 and IL10. Secretion of the cytokines IL6 and IL10 by TMD8 or OCI-LY3 ABC-DLBCL cells was measured using a mesoscale assay.
(§2) Cell passage number should not exceed 30. Cells should be kept between 0.5-2.5 million cells per mL during culturing and cells should be supplemented every 2-3 days with fresh 50 µM beta-mercaptoenthanol. No beta-mercaptoethanol was used during the mesoscale assay.
(§3) DMSO control wells were used to determine the maximum signal (High Control (HC)). […] Compounds and cells were incubated for 24 h at 37° C. and 5% CO2 (assay volume is 150 μL). After 24 h of incubation 50 μL of the supernatant was transferred to a MSD plate (V-Plex Proinflammation Panel 1 (human) kit, Mesoscale (MSD)) and incubated for 2 h with vigorous shaking (600 rpm) at room temperature. Following incubation, plates were washed 3× with PBS+0.05% Tween-20 and 25 μL detection antibody solution (IL6 & IL10 antibodies in diluent 3 (MSD)) was added per well followed by 2 h of incubation with vigorous shaking (600 rpm) at room temperature. After 3× washes with PBS+0.05% Tween-20, plates were incubated with 150 μL 2× Read Buffer T and read on SECTOR imager.

The test system of experiment [3] is Secretion of IL10 by OCI-LY3 ABC-DLBCL cells. In words: Human IL10 Mesoscale assay (OCI-LY3). In kind it is cell-based. The settings on record: read-out: Human IL10 Mesoscale assay (OCI-LY3). As to the method:
as §1, §2, §3

[4] abbreviates: OCI-LY3 cells, 24 h incubation, supernatant, MSD V-Plex.

This note sets out measurements from patent publication US11040031B2, “Pyrazole derivatives as MALT1 inhibitors” (Janssen Pharmaceutica NV, priority 2018, dated 2021).

Where two headings read alike, the source gives them in different places.

As for `Cc1cc(C#N)ccc1-n1ncc(C(=O)Nc2cnc(-n3nccn3)c(Cl)c2)c1C(F)(F)F` [Cpd 37, N-(5-chloro-6-(2H-1,2,3-triazol-2-yl)pyridin-3-yl)-1-(4-cyano-2-methylphenyl)-5-(trifluoromethyl)-1H-pyrazole-4-carboxamide], the results for the IC50 in experiment [1], in experiment [2] (setting [4]) and in experiment [3] (setting [4]) were 0.063 µM, 0.095 µM and 0.063 µM, respectively.

As for `O=C(Nc1cnc(-n2nccn2)c(Cl)c1)c1cnn(-c2ccc(F)c(F)c2Cl)c1C(F)(F)F` [Cpd 73, 1-(2-chloro-3,4-difluorophenyl)-N-(5-chloro-6-(2H-1,2,3-triazol-2-yl)pyridin-3-yl)-5-(trifluoromethyl)-1H-pyrazole-4-carboxamide], the IC50 worked out at 0.234 µM in experiment [1], 0.138 µM in experiment [2] (setting [4]) and 0.11 µM in experiment [3] (setting [4]).

`N#Cc1cc(NC(=O)c2cnn(-c3ccc(F)c(F)c3F)c2C(F)(F)F)cnc1-n1nccn1` [Cpd 97, N-(5-cyano-6-(2H-1,2,3-triazol-2-yl)pyridin-3-yl)-5-(trifluoromethyl)-1-(2,3,4-trifluorophenyl)-1H-pyrazole-4-carboxamide]: the results for the IC50 in experiment [1], in experiment [2] (setting [4]) and in experiment [3] (setting [4]) were 0.263 µM, 0.151 µM and 0.095 µM, respectively.

For `N#Cc1cc(NC(=O)c2cnn(-c3c(Cl)cc(F)cc3Cl)c2C(F)(F)F)cnc1-n1nccn1` [Cpd 102, N-(5-cyano-6-(2H-1,2,3-triazol-2-yl)pyridin-3-yl)-1-(2,6-dichloro-4-fluorophenyl)-5-(trifluoromethyl)-1H-pyrazole-4-carboxamide], the IC50 amounted to 0.151 µM in experiment [1]; 0.158 µM in experiment [2] (OCI-Ly3, 24 h); 0.158 µM in experiment [3] (OCI-Ly3, 24 h).

Consider `O=C(Nc1cnc(-n2nccn2)c(Cl)c1)c1cnn(-c2ccc(F)cc2Cl)c1C(F)(F)F` [Cpd 107, 1-(2-chloro-4-fluorophenyl)-N-(5-chloro-6-(2H-1,2,3-triazol-2-yl)pyridin-3-yl)-5-(trifluoromethyl)-1H-pyrazole-4-carboxamide], for which the IC50 stood at 0.141 µM in experiment [1], 0.158 µM in experiment [2] (setting [4]) and 0.112 µM in experiment [3] (setting [4]).

Regarding `Cc1cc(F)cnc1-n1ncc(C(=O)Nc2cnc(-n3nccn3)c(C#N)c2)c1C(F)(F)F` [Cpd 113, N-(5-cyano-6-(2H-1,2,3-triazol-2-yl)pyridin-3-yl)-1-(5-fluoro-3-methylpyridin-2-yl)-5-(trifluoromethyl)-1H-pyrazole-4-carboxamide], the IC50 worked out at 0.158 µM in experiment [1], 0.372 µM in experiment [2] (setting [4]) and 0.324 µM in experiment [3] (setting [4]).

Consider `N#Cc1cc(NC(=O)c2cnn(-c3ccccc3Cl)c2C(F)(F)F)cnc1-n1nccn1` [Cpd 116, 1-(2-chlorophenyl)-N-(5-cyano-6-(2H-1,2,3-triazol-2-yl)pyridin-3-yl)-5-(trifluoromethyl)-1H-pyrazole-4-carboxamide], for which the IC50 came to 0.117 µM in experiment [1], 0.107 µM in experiment [2] (setting [4]) and 0.105 µM in experiment [3] (setting [4]).

As to `Nc1ccnc(-n2ncc(C(=O)Nc3cnc(-n4nccn4)c(Cl)c3)c2C(F)(F)F)c1Cl` [Cpd 119, 1-(4-Amino-3-chloropyridin-2-yl)-N-(5-chloro-6-(2H-1,2,3-triazol-2-yl)pyridin-3-yl)-5-(trifluoromethyl)-1H-pyrazole-4-carboxamide], the IC50 in experiment [1] was 0.209 µM; in experiment [2] (setting [4]) it was 0.282 µM; in experiment [3] (setting [4]), 0.148 µM.

For `Cc1cc(C#N)ccc1-n1ncc(C(=O)Nc2cnc(-n3nccn3)c(C#N)c2)c1C(F)(F)F` [Cpd 126, 1-(4-cyano-2-methylphenyl)-N-(5-cyano-6-(2H-1,2,3-triazol-2-yl)pyridin-3-yl)-5-(trifluoromethyl)-1H-pyrazole-4-carboxamide], the IC50 in experiment [1] was found to be 0.038 µM; in experiment [2] (OCI-Ly3, 24 h), 0.076 µM; in experiment [3] (OCI-Ly3, 24 h) it was 0.068 µM.

On to `CSc1ccccc1-n1ncc(C(=O)Nc2cnc(-n3nccn3)c(Cl)c2)c1C(F)(F)F` [Cpd 137, N-(5-chloro-6-(2H-1,2,3-triazol-2-yl)pyridin-3-yl)-1-(2-(methylthio)phenyl)-5-(trifluoromethyl)-1H-pyrazole-4-carboxamide], for which the results for the IC50 in experiment [1], in experiment [2] (setting [4]) and in experiment [3] (setting [4]) were 0.151 µM, 0.123 µM and 0.1 µM, respectively.
